According to PubChem BioAssay AID256 (DTP/NCI, 2004):
Inconclusive results and toxic doses are left out. The calls were made as follows: active = survival T/C of 150% or more; inactive = T/C below 125% in these data.

Tested on: CD2F1 mice, L1210 leukemia ip, survival T/C
Experiment: NCI In Vivo Anticancer Drug Screen. Data for tumor model L1210 Leukemia (intraperitoneal) in CD2F1 (CDF1) mice
Settings: endpoint: mean survival time, higher = longer survival
Method in brief: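 Activity against a transplanted murine tumor was judged by comparing the compound group with a vehicle group. The outcome in the treated animals was divided by that in the controls.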

[1] = dose: 100.0 mg/kg/injection, schedule: Q04DX003 (ip), vehicle: saline with Tween-80
[2] = dose: 200.0 mg/kg/injection, schedule: Q04DX003 (ip), vehicle: saline with Tween-80
[3] = dose: 400.0 mg/kg/injection, schedule: Q04DX003 (ip), vehicle: saline with Tween-80
[4] = dose: 100.0 mg/kg/injection, schedule: Q01DX001 (ip), vehicle: saline
[5] = dose: 100.0 mg/kg/injection, schedule: Q04DX003 (ip), vehicle: saline
[6] = dose: 200.0 mg/kg/injection, schedule: Q01DX001 (ip), vehicle: saline
[7] = dose: 200.0 mg/kg/injection, schedule: Q04DX003 (ip), vehicle: saline
[8] = dose: 400.0 mg/kg/injection, schedule: Q01DX001 (ip), vehicle: saline
[9] = dose: 400.0 mg/kg/injection, schedule: Q04DX003 (ip), vehicle: saline
[10] = dose: 75.0 mg/kg/injection, schedule: Q01DX001 (ip), vehicle: saline
[11] = dose: 150.0 mg/kg/injection, schedule: Q01DX001 (ip), vehicle: saline
[12] = dose: 100.0 mg/kg/injection, schedule: Q01DX009 (ip), vehicle: saline with Tween-80
[13] = dose: 200.0 mg/kg/injection, schedule: Q01DX009 (ip), vehicle: saline with Tween-80
[14] = dose: 400.0 mg/kg/injection, schedule: Q01DX009 (ip), vehicle: saline with Tween-80
[15] = dose: 100.0 mg/kg/injection, schedule: Q04DX002 (ip), vehicle: saline with Tween-80
[16] = dose: 100.0 mg/kg/injection, schedule: Q01DX001 (ip), vehicle: saline with Tween-80
[17] = dose: 200.0 mg/kg/injection, schedule: Q01DX001 (ip), vehicle: saline with Tween-80
[18] = dose: 400.0 mg/kg/injection, schedule: Q01DX001 (ip), vehicle: saline with Tween-80
[19] = dose: 37.5 mg/kg/injection, schedule: Q01DX009 (ip), vehicle: saline

Measured: T/C

COc1ccc2c(c1)CCC1=C2CCC2(C)C(=O)NC(=O)N12 (centres undefined)
inactive: [1] 98 % of control | [2] 96 % of control | [3] 98 % of control

COc1cccc(CO)c1Oc1ccc(C)cc1
inactive: [4] 102 % of control | [5] 89 % of control | [6] 105 % of control | [7] 89 % of control | [8] 100 % of control | [9] 89 % of control

O=C1CC2OCC=C3CN4CCC5(C(=O)O)C(N1)C2C3CC45 (centres undefined)
inactive: [10] 106 % of control | [11] 100 % of control | dose: 300.0 mg/kg/injection, schedule: Q01DX001 (ip), vehicle: saline 100 % of control

Cc1ccc(NC(=O)c2ccccc2Cl)c(C)c1
inactive: [12] 110 % of control | [1] 104 % of control | [13] 93 % of control | [2] 101 % of control | [14] 98 % of control | [3] 97 % of control

OCC1OC(n2ncc3cncnc32)C(O)C1O (centres undefined)
inactive: dose: 25.0 mg/kg/injection, schedule: Q01DX009 (ip), vehicle: other 94 % of control | dose: 50.0 mg/kg/injection, schedule: Q01DX009 (ip), vehicle: other 97 % of control | dose: 100.0 mg/kg/injection, schedule: Q01DX009 (ip), vehicle: other 90 % of control | dose: 200.0 mg/kg/injection, schedule: Q01DX009 (ip), vehicle: other 97 % of control

CCC(C)C(C(=O)OCCN(C)C)c1ccccc1 (centres undefined)
inactive: dose: 50.0 mg/kg/injection, schedule: Q01DX009 (ip), vehicle: saline with Tween-80 100 % of control | [12] 97 % of control | [13] 103 % of control

Cc1[nH]c2ccc(-c3ccccc3)cc2c1CC(=O)OC(C)C
inactive: [15] 97 % of control | dose: 200.0 mg/kg/injection, schedule: Q04DX002 (ip), vehicle: saline with Tween-80 117 % of control | dose: 400.0 mg/kg/injection, schedule: Q04DX002 (ip), vehicle: saline with Tween-80 105 % of control

CCCCC1(CC)NC(=O)NC1=O (centres undefined)
inactive: dose: 100.0 mg/kg/injection, schedule: Q01DX001 (ip), vehicle: other 92 % of control | dose: 200.0 mg/kg/injection, schedule: Q01DX001 (ip), vehicle: other 92 % of control | dose: 400.0 mg/kg/injection, schedule: Q01DX001 (ip), vehicle: other 87 % of control

O=C(O)c1cc(-c2ccccc2)nc2c1ccc1ccccc12
inactive: [4] 103 % of control | [6] 102 % of control | [8] 97 % of control

C/C(=C/c1ccc([N+](=O)[O-])cc1)C(=O)O
inactive: [16] 103 % of control | [17] 100 % of control | [18] 103 % of control

CN1NC(c2ccccc2)C2CN(C3CCCCC3)C(=O)C21O (centres undefined)
inactive: [1] 92 % of control | [2] 88 % of control | [3] 101 % of control

COc1ccc(/C=N/NC(=O)CNC(=O)c2ccccc2)cc1
inactive: [12] 92 % of control | [14] 88 % of control

CO[C@@]12[C@@H]3N[C@@H]3CN1C1=C(C(=O)C(NCCN(C)C)=C(C)C1=O)[C@@H]2COC(N)=O
inactive: dose: 1.5 mg/kg/injection, schedule: Q01DX001 (ip), vehicle: water 106 % of control | dose: 3.0 mg/kg/injection, schedule: Q01DX001 (ip), vehicle: distilled water + Tween-80 116 % of control | dose: 3.0 mg/kg/injection, schedule: Q01DX001 (ip), vehicle: water 106 % of control | dose: 6.0 mg/kg/injection, schedule: Q01DX001 (ip), vehicle: water 116 % of control | dose: 24.0 mg/kg/injection, schedule: Q01DX001 (ip), vehicle: distilled water + Tween-80 96 % of control | dose: 24.0 mg/kg/injection, schedule: Q01DX001 (ip), vehicle: water 93 % of control

O=C(C1=CCCCC1)c1ccc(-c2ccccc2)cc1
inactive: [12] 102 % of control | [1] 95 % of control | [13] 91 % of control | [2] 95 % of control | [14] 96 % of control | [3] 93 % of control

COc1cc2cc[n+]3c(C)c4cc5c(cc4cc3c2cc1OC)OCO5 (tested in a mixture with another compound)
inactive: dose: 25.0 mg/kg/injection, schedule: Q01DX009 (ip), vehicle: saline with Tween-80 120 % of control | dose: 37.5 mg/kg/injection, schedule: Q01DX009 (ip), vehicle: saline with Tween-80 94 % of control | [19] 108 % of control | dose: 50.0 mg/kg/injection, schedule: Q01DX009 (ip), vehicle: saline 106 % of control | [5] 121 % of control | [7] 93 % of control

CC(C)(C)OC(=O)N/N=C/c1ccc2c(c1)CCC2
inactive: dose: 100.0 mg/kg/injection, schedule: Q01DX001 (ip), vehicle: Klucel (hydroxypropylcellulose) (HPC) 101 % of control | dose: 200.0 mg/kg/injection, schedule: Q01DX001 (ip), vehicle: Klucel (hydroxypropylcellulose) (HPC) 101 % of control | dose: 400.0 mg/kg/injection, schedule: Q01DX001 (ip), vehicle: Klucel (hydroxypropylcellulose) (HPC) 104 % of control

OC1OCC(Cc2ccc3c(c2)OCO3)C1Cc1ccc2c(c1)OCO2 (centres undefined)
inactive: [5] 89 % of control | [7] 93 % of control | [9] 89 % of control

CN(C)S(=O)(=O)/C=C(\Cl)c1ccccc1
inactive: [16] 97 % of control | [17] 100 % of control | [18] 104 % of control

C=CCC(C)(C)/C=N/N
inactive: [19] 101 % of control | [10] 95 % of control | dose: 75.0 mg/kg/injection, schedule: Q01DX009 (ip), vehicle: saline 100 % of control | [11] 98 % of control | dose: 150.0 mg/kg/injection, schedule: Q01DX009 (ip), vehicle: saline 107 % of control

CS(=O)CN(c1c(Cl)c(Cl)c(NS(=O)(=O)c2ccccc2)c(Cl)c1Cl)S(=O)(=O)c1ccccc1 (centres undefined)
inactive: [16] 96 % of control | [17] 92 % of control | [18] 92 % of control

N=C(N)SCc1cccc([N+](=O)[O-])c1
inactive: [15] 97 % of control

O=C(CC(=O)c1cccc([N+](=O)[O-])c1)Nc1cccc([N+](=O)[O-])c1
inactive: dose: 100.0 mg/kg/injection, schedule: Q01DX009 (ip), vehicle: Klucel (hydroxypropylcellulose) (HPC) 92 % of control | dose: 100.0 mg/kg/injection, schedule: Q04DX003 (ip), vehicle: Klucel (hydroxypropylcellulose) (HPC) 90 % of control | dose: 200.0 mg/kg/injection, schedule: Q01DX009 (ip), vehicle: Klucel (hydroxypropylcellulose) (HPC) 92 % of control | dose: 200.0 mg/kg/injection, schedule: Q04DX003 (ip), vehicle: Klucel (hydroxypropylcellulose) (HPC) 96 % of control | dose: 400.0 mg/kg/injection, schedule: Q01DX009 (ip), vehicle: Klucel (hydroxypropylcellulose) (HPC) 94 % of control | dose: 400.0 mg/kg/injection, schedule: Q04DX003 (ip), vehicle: Klucel (hydroxypropylcellulose) (HPC) 96 % of control
